# Experimental data published in patent US20090029956A1, “Substance mixture” (priority 2005, published 2009).
# System: human ciliary cells
# Test: Flicker frequency and regeneration capability of human ciliary cells, photometric method
# Assay type: cell-based
# Settings: for Mean value in percent, 20 min test Solution: (II) / Mean value in percent, 20 min NaCl 0.9% (III): Time I = 100; for Mean value in percent, 20 min NaCl 0.9% (III): Time III (regeneration)
# Description: In comparison with this, the seriously damaging effect of preservatives (on the basis of benzalkonium chloride, BAC) used in conventional cortisone preparations on human ciliary cells was compared. The flicker frequency was determined in a manner known per se by means of a photometric method. Solutions and fluticasone propionate and mixed solutions of fluticasone propionate with N-chlorotaurine sodium (NCT) were prepared in accordance with the following table: Mucous membrane cells were first incubated with an isotonic NaCl solution for 20 minutes (Time I), subsequently incubated with the solutions A, B and C for 20 minutes (Time II) and subsequently incubated in an isotonic solution for a further 20 minutes (Time III). Parallel to this, […] mucous membrane cells were incubated according to the same pattern in comparison with BAC solutions (concentrations of 0.04 mg/ml; 0.1 mg/ml; 0.2 mg/ml; 0.5 mg/ml). The results of the regeneration capability of the ciliary cells after treatment with the solutions A, B and C were compared with the results after the treatment with the BAC solutions.
substance,measurement,setting,value
benzalkonium chloride [BAC],"Mean value in percent, 20 min test Solution: (II)",0.04 mg/ml BAC,96.6%
same,"Mean value in percent, 20 min NaCl 0.9% (III)",0.04 mg/ml BAC,100%
same,"Mean value in percent, 20 min test Solution: (II)",0.1 mg/ml BAC,91.9%
same,"Mean value in percent, 20 min NaCl 0.9% (III)",0.1 mg/ml BAC,93.6%
same,"Mean value in percent, 20 min test Solution: (II)",0.2 mg/ml BAC,63.5%
same,"Mean value in percent, 20 min NaCl 0.9% (III)",0.2 mg/ml BAC,19.4%
same,"Mean value in percent, 20 min test Solution: (II)",0.5 mg/ml BAC,0%
same,"Mean value in percent, 20 min NaCl 0.9% (III)",0.5 mg/ml BAC,0%
same,Recovery of ciliary cells after treatment,treatment with more than 0.1 mg/ml benzalkonium chloride,remain permanently damaged
